Values of other authors, collected in patent US12324827B2, “Combination therapy for the treatment of migraines” (The University of Chicago, priority 2019, dated 2025).

How the values were obtained:
[1] = tested on: spreading depression; conditions: SD from KCl; pretreatment; cited from earlier work
[2] = tested on: trigeminal system neurons; conditions: in vivo; cited from earlier work

| Molecule | protection against SD over sham treatment [1] | CSD-based activation of Aδ fibers and C-fiber afferents in the trigeminal ganglion [2] | activation and sensitization of high threshold trigeminal system neurons after CSD [2] | direct inhibition of CSD [2] | wide dynamic range neurons of the caudal trigeminal nucleus [2] |
| --- | --- | --- | --- | --- | --- |
| CC1(C)O[C@@H]2[C@@H](CO[C@@]3(COS(N)(=O)=O)OC(C)(C)O[C@@H]23)O1 [topiramate, reference compound] | no more than a two-fold level of protection |  |  |  |  |
| TEV-48125: CGRP-mAb fremanezumab, humanized monoclonal anti-CGRP antibody |  | reduce CSD-based activation of Aδ fibers but not activation of C-fiber afferents | inhibited activation and sensitization | did not directly inhibit CSD | had no effect |
